Measurements published in patent publication US20170158702A1, “MULTIVALENT RAS BINDING COMPOUNDS” (KYRAS THERAPEUTICS, INC., priority 2015, published 2017).
Structures can show the parent of a compound that is named as a salt.

Key:
Format in all cases: cell-based
NCI-H460 = test: Viability assay with NCI-H460 (CellTiter-Glo cytotoxicity assay, 72 h); conditions: NCI-H460 cell line, 72 h after compounds addition
Procedure: (§1) NCI-H460 (Epithelial lung tissue; carcinoma; large cell lung cancer) were cultured in RPMI Medium 1640 (Invitrogen-22400105) supplemented with 10% fetal bovine serum (FBS; Invitrogen-10099141). All the cell lines were maintained in a humidified incubator at 37° C. with 5% CO2. Cell culture media and supplements were purchased from Invitrogen, and tissue culture flasks were purchased from Corning, 96-well plates were purchased from Greiner. CellTiter-Glo Luminescent Cell Viability Assay kits were purchased from Promega (Promega-G7573), cells counter Vi-Cell was purchased from Beckman, D300e digital dispenser was purchased from Tecan, detection instrument Envision was purchased from PerkinElmer.
(§2) Paclitaxel was purchased from SELLECK, test compounds, such as any one of the compounds disclosed herein, attained solubility in DMSO and when diluted into culture media. DMSO, solutions containing the test compounds, and culture media were warmed to 37° C. or room temperature for the solution preparation and dilutions.
(§3) NCI-H460 Cell line were seeded in 96-well plates (1200/well) and allowed to adhere to overnight (100 uL/well), for drug treatments with 2 fold dilution, 9 dose points, triplicates or vehicle control, compound stock solutions were prepared in DMSO and use D300e digital dispenser to add compounds to the wells to give the indicated final drug concentrations. Final DMSO concentration was 0.5%. Cellular ATP concentrations were assessed by using the CellTiter-Glo Cell Viability Assay as per the manufacturer's instructions 72 h after compounds addition. Additional cells lines were assayed with any one of the compounds disclosed herein according to the procedures described for the viability assay with NCI-H460.

MIA PaCa-2 = test: Viability assay with MIA PaCa-2; conditions: MIA PaCa-2, viability assay per Example 57
Procedure: as §1, §2, §3
A viability assay with MIA PaCa-2 (Epithelial pancreas tissue; carcinoma) was performed with compounds listed in Table 15, according to the procedures described in Example 57.

HT-29 = test: Viability assay with HT-29; conditions: HT-29, viability assay per Example 57
Procedure: as §1, §2, §3
A viability assay with HT-29 (Colorectal adenocarcinoma) was performed with compounds listed in Table 18 according to the procedures described in Example 57.

EC50 (MIA PaCa-2) [µM]	EC50 (HT-29) [µM]	Structure (SMILES)	EC50 (NCI-H460) [µM]
≤ 5	≤ 5	NCCCn1cc(-c2ccc(OC(F)(F)F)cc2)c2cc(CN3CCSCC3)ccc21 [C293; HCl]	≤ 5
≤ 5	≤ 5	NCCCn1cc(-c2ccc(OC(F)(F)F)cc2CN)c2cc(CN3CCC(Nc4ccccc4Cl)CC3)ccc21 [C241; HCl]	≤ 5
≤ 5	≤ 5	NCCCn1cc(-c2ccc(OC(F)(F)F)cc2)c2cc(CN3CCN(Cc4ncccc4Cl)CC3)ccc21 [C151; HCl]	≤ 5
≤ 5	≤ 5	NCC(=O)N1CCC(n2cc(-c3ccc(OC(F)(F)F)cc3)c3cc(CN4CCN(Cc5ccccc5Cl)CC4)ccc32)CC1 [C203; HCl]	≤ 5
≤ 5	≤ 5	NCCCn1cc(-c2ccccc2CO)c2cc(CN3CCN(Cc4ccccc4Cl)CC3)ccc21 [C181; HCl]	≤ 5
≤ 5	≤ 5	COc1ccc(-c2cn(C(C)(C)CCN)c3ccc(CN4CCN(Cc5ccccc5Cl)CC4)cc23)cc1 [C206; HCl]	≤ 5
≤ 5	≤ 5	NCc1cc(OC(F)(F)F)ccc1-c1cn(C2CCNCC2)c2ccc(CN3CCN(Cc4ccccc4Cl)CC3)cc12 [C254; HCl]	≤ 5
≤ 5	≤ 5	NCCCn1cc(-c2ccc(OC(F)(F)F)cc2CN)c2cc(CN3CCC(Nc4cccc(Cl)c4)CC3)ccc21 [C247; HCl]	≤ 5
≤ 5	≤ 5	COc1cccc(CN2CCC(Cc3ccc4c(c3)c(-c3ccc(OC(F)(F)F)cc3CN)cn4CCCN)CC2)c1 [C291; HCl]	≤ 5
≤ 5	≤ 5	NCCCn1cc(-c2ccc(OC(F)(F)F)cc2)c2c(CN3CCN(Cc4ccccc4Cl)CC3)cccc21 [C183; HCl]	≤ 5
≤ 5	≤ 5	NCCCn1nc(-c2ccc(OC(F)(F)F)cc2)c2cc(CN3CCN(Cc4ccccc4Cl)CC3)ccc21 [C178; HCl]	≤ 5
5 to 10	≤ 5	COc1cccc(CCCCN(C)Cc2ccc3c(c2)c(-c2ccc(OC(F)(F)F)cc2CN)cn3CCCN)c1 [C298; HCl]	≤ 5
≤ 5	≤ 5	COc1cc(OC)cc(OC2CCN(Cc3ccc4c(c3)c(-c3ccc(OC(F)(F)F)cc3CN)cn4CCCN)CC2)c1 [C281; HCl]	≤ 5
≤ 5	≤ 5	COc1cc(NC2CCN(Cc3ccc4c(c3)c(-c3ccc(OC(F)(F)F)cc3CN)cn4CCCN)CC2)cc(OC)c1 [C278; HCl]	≤ 5
≤ 5	≤ 5	COc1cccc(CC2(CO)CCN(Cc3ccc4c(c3)c(-c3ccc(OC(F)(F)F)cc3CN)cn4CCCN)CC2)c1 [C294; HCl]	≤ 5
≤ 5	≤ 5	NCCCn1cc(-c2ccc(OC(F)(F)F)cc2)c2c(CN3CCN(CCc4ccccc4Cl)CC3)cccc21 [C147; HCl]	≤ 5
≤ 5	≤ 5	COc1ccc(-c2cn(CCCN)c3ccc(CN4CCN(Cc5ccccc5Cl)CC4)cc23)c(CN)c1 [C222; HCl]	≤ 5
≤ 5	≤ 5	NCC(=O)NCc1ccc(-n2cc(-c3ccc(OC(F)(F)F)cc3)c3cc(CN4CCN(Cc5ccccc5Cl)CC4)ccc32)cn1 [C219; HCl]	≤ 5
≤ 5	≤ 5	NCCCn1nc2ccc(CN3CCN(Cc4ccccc4Cl)CC3)cc2c1-c1ccc(OC(F)(F)F)cc1 [C182; HCl]	≤ 5

EC50 (MIA PaCa-2) [µM]	EC50 (HT-29) [µM]	Structure (SMILES)	EC50 (NCI-H460) [µM]
5 to 10	5 to 10	NCCCn1cc(-c2ccc(CCN)cc2)c2cc(CN3CCN(Cc4ccccc4Cl)CC3)ccc21 [C188; HCl]	5 to 10
≤ 5	≤ 5	FC(F)(F)Oc1ccc(-c2cn(CC3CCNCC3)c3ccc(CN4CCC(Cc5ccccc5Cl)CC4)cc23)cc1 [C228; HCl]	≤ 5
5 to 10	≤ 5	Cn1ccc(-c2cn(CCCN)c3ccc(CN4CCN(Cc5ccccc5Cl)CC4)cc23)n1 [C189; HCl]	5 to 10
5 to 10	5 to 10	COc1ncc(-c2cn(CCCN)c3ccc(CN4CCN(Cc5ccccc5Cl)CC4)cc23)cn1 [C143; HCl]	5 to 10
≤ 5	≤ 5	COc1ccc(-c2cn(CCCCN)c3ccc(CN4CC5CCC(C4)N5Cc4ccccc4Cl)cc23)cc1 [C133; HCl]	≤ 5
≤ 5	≤ 5	COc1ccc(-c2cn(CCCN)c3ccc(CN4CCN(Cc5ccccc5Cl)CC4)cc23)nc1 [C196; HCl]	≤ 5
≤ 5	≤ 5	COc1cccc(Cl)c1-c1cn(CCCN)c2ccc(CN3CCN(Cc4c(Cl)cccc4Cl)CC3)cc12 [C154; HCl]	≤ 5
≤ 5	≤ 5	NCCCn1cc(-c2ccc(OC(F)(F)F)cc2CN)c2cc(CN3CCC(CC(F)(F)F)CC3)ccc21 [C252; HCl]	≤ 5
5 to 10	5 to 10	Cn1cc(-c2cn(CCCN)c3ccc(CN4CCN(Cc5ccccc5Cl)CC4)cc23)cn1 [C191; HCl]	5 to 10
≤ 5	≤ 5	NCCCn1cc(-c2ccc(OC(F)(F)F)cc2)c2cc(CN3CCC(Oc4cccc(Cl)c4)CC3)ccc21 [C236; HCl]	≤ 5
≤ 5	≤ 5	COc1cccc(CN2CCN(Cc3ccc4c(c3)c(-c3ccc(OC(F)(F)F)cc3CN)cn4C3CCNCC3)CC2)c1 [C274; HCl]	≤ 5
≤ 5	≤ 5	COc1cccc(OC2CCN(Cc3ccc4c(c3)c(-c3ccc(OC(F)(F)F)cc3CN)cn4CCCN)CC2)c1 [C280; HCl]	≤ 5
5 to 10	5 to 10	NCCCn1cc(-c2ccc(OC(F)(F)F)cc2)c2cc(CN3CCC(NCC(F)(F)F)CC3)ccc21 [C233; HCl]	≤ 5
≤ 5	≤ 5	NCCCn1cc(-c2cccc(CO)c2)c2cc(CN3CCN(Cc4ccccc4Cl)CC3)ccc21 [C152; HCl]	≤ 5
≤ 5	≤ 5	COc1ccc(-c2cn(CCCN)c3ccc(CN4CCN(Cc5ccccc5Cl)CC4)cc23)c(CN(C)C)c1 [C284; HCl]	≤ 5
≤ 5	≤ 5	COc1cccc(CC2CCN(Cc3ccc4c(c3)c(-c3ccc(OC(F)(F)F)cc3CN)cn4CCCN)CC2)c1 [C262; HCl]	≤ 5
≤ 5	≤ 5	NCCCn1cc(-c2ccc(OC(F)(F)F)cc2)c2cc(CN3CCN(Cc4ccc(Cl)cc4Cl)CC3)ccc21 [C135; HCl]	≤ 5
5 to 10	5 to 10	NCc1cc(OC(F)(F)F)ccc1-c1cn(CCCNC(=O)C2(N)CCNCC2)c2ccc(CN3CCN(Cc4ccccc4Cl)CC3)cc12 [C264; HCl]	5 to 10
≤ 5	≤ 5	FC(F)(F)Oc1ccc(-c2cn(CC3CCCNC3)c3ccc(CN4CCN(Cc5ccccc5Cl)CC4)cc23)cc1 (stereo not drawn) [C230; HCl]	≤ 5

Structure (SMILES)	EC50 (MIA PaCa-2) [µM]	EC50 (HT-29) [µM]	EC50 (NCI-H460) [µM]
Nc1ccc(Cn2cc(-c3ccc(OC(F)(F)F)cc3)c3cc(CN4CCN(Cc5ccccc5Cl)CC4)ccc32)cn1 [C232; Formic Acid]	≤ 5	≤ 5	≤ 5
NCc1cc(-n2cc(-c3ccc(OC(F)(F)F)cc3)c3cc(CN4CCN(Cc5ccccc5Cl)CC4)ccc32)ccn1 [C229; Formic Acid]	≤ 5	≤ 5	≤ 5
COc1cccc(CC2CN(Cc3ccc4c(c3)c(-c3ccc(OC(F)(F)F)cc3CN)cn4CCCN)C2)c1 [C279; Formic Acid]	≤ 5	≤ 5	≤ 5
NCCCn1cc(-c2ccc(OC(F)(F)F)cc2)c2cc(CN3CCC(Nc4cccc(Cl)c4)CC3)ccc21 [C214; Formic Acid]	≤ 5	≤ 5	≤ 5
NCCCn1cc(-c2ccc(OC(F)(F)F)cc2N)c2cc(CN3CCN(Cc4ccccc4Cl)CC3)ccc21 [C239; Formic Acid]	≤ 5	≤ 5	≤ 5
NCCc1cccc(-n2cc(-c3ccc(OC(F)(F)F)cc3)c3cc(CN4CCN(Cc5ccccc5Cl)CC4)ccc32)c1 [C235; Formic Acid]	≤ 5	≤ 5	≤ 5
FC(F)(F)Oc1ccc(-c2cn(CCCCN(c3ccccn3)c3ccccn3)c3ccc(CN4CCN(Cc5ccccc5Cl)CC4)cc23)cc1 [C205; Formic Acid]	5 to 10	5 to 10	5 to 10
NCCCn1cc(-c2ccc(OC(F)(F)F)cc2CN)c2cc(CN3CCC4(CC3)CCN(Cc3ccccc3Cl)C4)ccc21 [C249; Formic Acid]	≤ 5	≤ 5	≤ 5
